Assay results: patent EP4623912A1, “A METHOD FOR DEFATTENING A STEATOTIC LIVER EX VIVO” (ETH Zurich, priority 2024, dated 2025)
Where a SMILES comes first, the peptide text is derived from it. The star is where a group is joined. Cbz = O=C(OCc1ccccc1)*

Tests used:
ATGL [1] = assay: Block of proteasome mediated degradation, cellular ATGL protein; type: cell-based; settings: proteasome blocked; Chloroquine (autophagy) had no such effect
ATGL [2] = assay: ATGL response to glucose deprivation in HepG2 cells after BFA treatment; type: cell-based, human; settings: HepG2, 5 µg/mL BFA for 6 hours before glucose deprivation
Experimental: (§1) HepG2 cell type was cultured in RPMI medium with 10% FBS and 1% Pen/Strep on collagen-coated plates. Lipofectamine RNAiMAX reagent mediated siRNA (100 nM) was delivered to cells at the suspended state for 48 h. Different from HEK cells, it is not necessary to induce LDs via OA treatment in that there exist LDs in the HepG2 cell type at normal culture medium. The inventors treated HepG2 cells with 10 µM PF04620110 (DGAT1 inhibitor, Sigma) & PF-06424439 (DGAT2 inhibitor, Sigma) for 48 hours or with 5 µg/mL BFA (B5936, Sigma) for 6 hours to deplete LDs and intact Golgi in the HepG2 cell type respectively before glucose deprivation. To deprive glucose in the HepG2 cell type, we either added 2-DG at indicated concentrations to the culture medium or refresh cells with RPMI medium containing different glucose concentrations prepared from the same RPMI medium (Gibco, 11879020).
(§2) Adipose depots, liver pieces, differentiated iBAs, HepG2, HEK293T and HEK293-AAV cell types were homogenized in RIPA buffer (50 mM Tris-HCl pH 7.4, 150 mM NaCl, 2 mM EDTA, 1.0% Triton X100, 0.5% sodium deoxycholate) with protease inhibitors (Complete, Roche) and phosphatase inhibitors (Halt phosphatase inhibitor cocktail, ThermoFisher). […] The concentration of WCE was determined by DC Protein Assay (Bio-Rad). […]

C57BL/6N male mice = assay: Glucose deprivation by 2-DG injection in mice; type: in vivo, mouse
Experimental: All animal experiments were permitted by the Veterinary office of the Canton of Zurich. Both female and male mice were used in the experiments, and they were housed 2-5 littermates per cage in ventilated cages at standard housing conditions (22°C, 12 h reversed light/dark cycle, dark phase starting at 7 am) with normal chow diet (18% proteins, 4.5% fibers, 4.5% fat, 6.3% ashes, Provimi Kliba SA) and water. Health status of all the mouse lines were monitored regularly based on FELASA guidelines. 8-10 weeks old C57BL/6N male mice were fasted for 24 h or injected with 2-DG (2 g/kg BW) to induce glucose deprivation for different durations. Female ROSA26-LSL-spCas9 mice (The Jackson Lab strain) were intravenously injected with AAV8-U6-Pi4kb gRNAs-TBG-Cre, AAV8-U6-Sacm1l gRNAs-TBG-Cre, AAV8-U6-Cu/7 gRNAs-TBG-Cre and AAV8-U6-Fbxw8 gRNAs-TBG-Cre virus pools to express six gRNAs targeting individual gene and CAS9 in the liver at a dose of 3×10^11 genome copies/mouse. Two weeks later, livers were harvested for protein and RNA extraction after 6 hours fasting. To determine liver TG levels under NCD feeding condition, 4 weeks after AAV administration livers were harvested after 6 hours fasting. Also 4 weeks after AAV administration, the liver specific Cul7&Fbxw8 double knockout mice were injected with 2-DG (2 g/kg BW) to induce 1 hour glucose deprivation prior to liver harvesting for protein extraction.
Adipose depots, liver pieces, differentiated iBAs, HepG2, HEK293T and HEK293-AAV cell types were homogenized in RIPA buffer (50 mM Tris-HCl pH 7.4, 150 mM NaCl, 2 mM EDTA, 1.0% Triton X100, 0.5% sodium deoxycholate) with protease inhibitors (Complete, Roche) and phosphatase inhibitors (Halt phosphatase inhibitor cocktail, ThermoFisher). The homogenates were centrifuged at 12,000×g for 10 min at 4°C to remove debris and collect whole cell extract (WCE). The concentration of WCE was determined by DC Protein Assay (Bio-Rad). After boiling the sample with Lämmeli buffer at 95°C for 5 min, equal amount of proteins was loaded and separated on 12% SDS-PAGE. The proteins were transferred to nitrocellulose membrane and blotted by ATGL (1:1000, Cell Signaling), CGI-58 (1:1000, Proteintech), phospho-HSL(Ser660) (1:1000, Cell Signaling), PLIN1 (1:1000, Cell Signaling), HSL (1:1000, Cell Signaling), γ-tubulin (1:10000, Sigma), FLAG (1:10000, Sigma; 1:1000, Cell Signaling), MGL (1:1000, Abcam), HA (1:1000, Cell signaling), FBXW8 (1:100, Santa Cruz; 1:1000, Sigma), CUL7 (1:100, Santa Cruz), HSP90 (1:1000, Cell Signaling), K48 polyubiquitin (1:1000, Cell signaling), PI4KB (1:1000, Sigma), SACM1L (1:1000, Sigma), AKT1 (1:1000, Cell Signaling), phospho-AKT1(Ser473) (1:1000, Cell Signaling), TGN46 (1:1000, Abcam), MAOA (1:1000, Abcam), PLIN2 (1:1000, Abcam), PMP70 (1:10000, Sigma), Calnexin (1:1000, Cell Signaling), ARF1 (1:1000, Invitrogen), GAPDH (1:1000, Cell Signaling), RAB7 (1:1000, Cell Signaling), alpha 1 Sodium Potassium ATPase (1:1000, Abcam), Cleaved Caspase-3 (1:1000, Cell Signaling), phospho-AMPKα (Thr172) (1:1000, Cell Signaling), AMPKα (1:1000, Cell Signaling) and GM130 (1:1000, Proteintech). The primay antibody signal was visualized by HRP-conjugated secondary antibodies (1:5000, Millipore) and the ImageQuant system (GE Healthcare Life Sciences).
For mouse insulin measurement, plasma was collected at different timepoints after 2-DG administration in wild type mice. 5 µl plasma sample was used to determine insulin levels via Ultra-sensitive mouse insulin ELISA kit (Crystal Chem, Cat# 90080) according to the manufacturer's protocol. The absorbance was measured via Synergy Gen5 Platereader at 450/630 nm. 2 µl plasma sample was used to determine glucose levels via Glucose Assay Kit (Sigma, MAK263) according to the manufacturer's protocol. The absorbance was read at 570 nm in Synergy Gen5 Platereader.
Plasma collected from mice under different conditions was used to determine levels of lipolysis and liver injury. […]

ATGL [3] = assay: ATGL in HepG2 cells after 2-DG treatment; type: cell-based, human
Experimental: as §1, with “To deprive glucose in the HepG2 cell type, we either added 2-DG at indicated concentrations to the culture medium or refresh cells with RPMI medium containing different glucose concentrations prepared from the same RPMI medium (Gibco, 11879020).” left out
Total RNA was extracted from adipose depots, liver or in vitro cell cultures via Trizol reagent (Invitrogen) according to the manufacturer's instructions. […] Quantitative PCR was performed using KAPA SYBR FAST Universal kit (Roche, KK4618) on ViiA7 (Applied Biosystems) and the relative transcript levels were normalized to […] expression via ΔΔCt method. […]
as §2

[4] = only 1 hour after 2-DG administration

CC(C)C[C@@H](C=O)NC(=O)[C@H](CC(C)C)NC(=O)[C@H](CC(C)C)NC(=O)OCc1ccccc1 [MG132] (Cbz-Leu-Leu-Leu-aldehyde)
cellular ATGL protein (ATGL [1]): accumulation

C[C@H]1CCC/C=C/[C@@H]2C[C@H](O)C[C@H]2[C@H](O)/C=C/C(=O)O1 [BFA, Brefeldin A]
intracellular ATGL levels upon glucose deprivation (ATGL [2]): failed to upregulate

O=CC[C@@H](O)[C@H](O)[C@H](O)CO [2-DG, 2-Deoxy-D-glucose]
lipolysis (plasma FFA levels) (C57BL/6N male mice; 2-DG 2 g/kg BW, 1 h, 6 h, 12 h (Fig. 1c)): significantly induced
ATGL levels in livers of wild-type mice (C57BL/6N male mice; 2-DG for 1 hour, not in Cul7 and Fbxw8 double knockout (Fig. 6c)): upregulation
ATGL protein levels in the liver and iBAT (C57BL/6N male mice; 1 hour after 2-DG): increased
ATGL protein levels in the liver, iBAT, iWAT and gWAT (C57BL/6N male mice; longer glucose deprivation (6 h, 12 h after 2-DG)): further accumulation
HSL phosphorylation in white adipose tissues (C57BL/6N male mice; [4]): upregulation
plasma insulin levels (C57BL/6N male mice; [4]): reduction
ATGL protein abundance (ATGL [3]; HepG2, 50 mM 2-DG (Fig. 2b)): strongly induced
ATGL transcript levels (ATGL [3]; HepG2, 2-DG treatment): without changing
